Experimental data from ChEMBL document CHEMBL3734699, “A new cerebroside from the fruiting bodies of Hericium erinaceus and its applicability to cancer treatment” (Bioorg Med Chem Lett, 2015).
Calls of active or inactive are those of the source. No cut-off for these calls is given here.

Experiments:
HUVEC [1] = assay: Antiangiogenesis activity in HUVEC assessed as inhibition of VEGF-induced tube formation at 25 uM; assay type: functional, cell-based; conditions: Homo sapiens
LLC-PK1 = assay: Renoprotective activity in pig LLC-PK1 cells assessed as inhibition of cisplatin-induced nephrotoxicity at 100 to 200 uM preincubated for 2 hrs followed by cisplatin challenge measured after 24 hrs by MTT assay; assay type: functional, cell-based; conditions: Sus scrofa
HUVEC [2] = assay: Antiangiogenesis activity in HUVEC assessed as inhibition of VEGF-induced tube formation at 50 uM; assay type: functional, cell-based; conditions: Homo sapiens
[3] = Antioxidant activity of the compound assessed as DPPH radical scavenging activity by colorimetric method; assay type: physicochemical
[4] = target: Acetylcholinesterase (Homo sapiens) (UniProt P22303); assay: Inhibition of acetylcholine esterase (unknown origin) up to 200 uM by Ellman's colorimetric method
HUVEC [5] = assay: Cytotoxicity in HUVEC assessed as reduction in cell viability up to 50 uM; assay type: cell-based; conditions: human

Sequence of Acetylcholinesterase (Homo sapiens) (P22303 whole entry): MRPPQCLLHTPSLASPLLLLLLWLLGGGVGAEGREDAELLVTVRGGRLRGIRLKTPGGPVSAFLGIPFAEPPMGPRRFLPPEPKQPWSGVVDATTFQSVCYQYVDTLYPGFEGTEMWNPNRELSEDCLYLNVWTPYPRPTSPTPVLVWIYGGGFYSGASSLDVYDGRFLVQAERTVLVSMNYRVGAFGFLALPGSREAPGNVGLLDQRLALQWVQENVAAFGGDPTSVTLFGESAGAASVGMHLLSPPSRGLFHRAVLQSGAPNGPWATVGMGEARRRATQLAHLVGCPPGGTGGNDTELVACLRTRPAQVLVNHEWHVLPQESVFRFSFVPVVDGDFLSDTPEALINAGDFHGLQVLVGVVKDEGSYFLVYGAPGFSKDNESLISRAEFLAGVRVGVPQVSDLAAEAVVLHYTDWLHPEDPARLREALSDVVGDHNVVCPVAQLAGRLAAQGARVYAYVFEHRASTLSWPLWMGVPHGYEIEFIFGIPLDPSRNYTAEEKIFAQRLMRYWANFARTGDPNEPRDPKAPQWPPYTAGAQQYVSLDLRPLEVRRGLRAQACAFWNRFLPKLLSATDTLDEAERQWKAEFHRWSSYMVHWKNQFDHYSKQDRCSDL

For `CC(C)=CCC[C@](C)(O[C@@H]1O[C@H](CO)[C@@H](O)[C@H](O)[C@H]1O)[C@H]1CC[C@]2(C)[C@@H]1[C@H](O)C[C@@H]1[C@@]3(C)CC[C@H](O)C(C)(C)[C@@H]3CC[C@]12C`, the Activity (HUVEC [1]) was “Active”.
In the case of `CCCCCCCCCCCCCCCC[C@@H](O)C(=O)N[C@@H](CO[C@@H]1O[C@H](CO)[C@@H](O)[C@H](O)[C@H]1O)[C@H](O)/C=C/CC/C=C(\C)CCCCCC`, the Activity (LLC-PK1) is reported as “Active”, the Activity (HUVEC [2]) is reported as “Active” and the Activity [3] is reported as “Not Active”. For the same molecule, the Activity (HUVEC [1]) was “Active”, the inhibition [4] was “inactive” and the Activity (HUVEC [5]) was “Non-toxic”.
